Biological target: human dihydroorotate dehydrogenase (HsDHODH) (Homo sapiens, UniProt Q02127)
Format: biochemical

human dihydroorotate dehydrogenase (HsDHODH), sequence (Q02127 whole entry): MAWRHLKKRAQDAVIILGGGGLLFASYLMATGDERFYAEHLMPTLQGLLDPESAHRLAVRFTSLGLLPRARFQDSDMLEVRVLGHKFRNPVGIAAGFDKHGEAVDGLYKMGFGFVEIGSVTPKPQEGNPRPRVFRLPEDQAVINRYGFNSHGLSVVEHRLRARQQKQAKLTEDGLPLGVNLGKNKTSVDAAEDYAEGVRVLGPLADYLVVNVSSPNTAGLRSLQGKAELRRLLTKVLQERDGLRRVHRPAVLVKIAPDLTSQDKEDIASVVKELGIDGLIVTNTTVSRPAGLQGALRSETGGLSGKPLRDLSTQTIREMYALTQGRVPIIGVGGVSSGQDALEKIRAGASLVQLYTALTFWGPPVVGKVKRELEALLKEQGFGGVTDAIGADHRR

IC50: 121 ± 6.78 µM
SMILES: O=C(/C=C/c1ccc(O)c(O)c1)OCCc1ccccc1 [CAPE, caffeic acid phenethyl ester]

— PMC9329448 (Journal of Experimental Pharmacology, 2022)
